The record followed here is US11976061B2, “Preparation of benzimidazolone derivatives as novel diacylglyceride O-acyltransferase 2 inhibitors” (Merck Sharp & Dohme LLC, priority 2020, dated 2024).

A word on the IC50: it is the point on the concentration scale where inhibition reaches its midpoint.

For one assay, the target named is T1, human DGAT2 (hDGAT2) (Homo sapiens, UniProt Q96PD7).
T1 construct: made in house; host or cells: Sf-9 insect cells (baculovirus), membrane fraction
T1 sequence (Q96PD7 1-388): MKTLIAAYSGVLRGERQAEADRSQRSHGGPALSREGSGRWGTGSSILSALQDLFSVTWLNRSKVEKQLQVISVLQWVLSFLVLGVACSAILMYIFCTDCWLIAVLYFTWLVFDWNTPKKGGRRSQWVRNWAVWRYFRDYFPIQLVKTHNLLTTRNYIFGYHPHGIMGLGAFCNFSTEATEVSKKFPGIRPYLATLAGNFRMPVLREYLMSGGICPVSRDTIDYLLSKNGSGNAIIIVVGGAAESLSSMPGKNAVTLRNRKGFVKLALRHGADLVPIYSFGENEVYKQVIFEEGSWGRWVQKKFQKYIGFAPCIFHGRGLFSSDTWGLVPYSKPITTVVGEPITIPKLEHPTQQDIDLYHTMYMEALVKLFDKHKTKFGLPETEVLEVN
Description: DGAT2 Enzymatic Activity Assay. The class given is biochemical. The conditions noted are these: membrane prep of Sf-9 cells expressing hDGAT2; 25 μM diolein, 5 μM 13C oleoyl-CoA; 13C18-triolein by LC/MS/MS; read-out: DGAT2 IC50. The gist of the method: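 Membranes from Sf-9 cells expressing untagged human DGAT2 (8 ng/μL) incubated at rt in 100 mM Tris·Cl pH 7.0, 20 mM MgCl2, 5% ethanol with 25 μM diolein and 5 μM 13C oleoyl-CoA. 13C18-triolein product quantified by LC/MS/MS against 13C21-triolein internal standard; IC50 by 4-parameter fit.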
As for `CC(n1c(=O)n(-c2cc(OC(F)F)ccc2F)c2ccc(C(=O)NC3(C)CCS(=O)(=O)CC3)cc21)C(C)(C)O` (single isomer, unassigned) [Example 66a, 1-(5-(difluoromethoxy)-2-fluorophenyl)-3-(3-hydroxy-3-methylbutan-2-yl)-N-(4-methyl-1,1-dioxidotetrahydro-2H-thiopyran-4-yl)-2-oxo-2,3-dihydro-1H-benzo[d]imidazole-5-carboxamide], the concentration for half-maximal inhibition (IC50) worked out at 1.1 nM.

As for `CC(n1c(=O)n(-c2cccc(OC(F)F)c2)c2ccc(C(=O)NC3(C)CCS(=O)(=O)CC3)cc21)C(C)(C)O` (single isomer, unassigned) [Example 67a, 1-(3-(difluoromethoxy)phenyl)-3-(3-hydroxy-3-methylbutan-2-yl)-N-(4-methyl-1,1-dioxidotetrahydro-2H-thiopyran-4-yl)-2-oxo-2,3-dihydro-1H-benzo[d]imidazole-5-carboxamide], the IC50 amounted to 1.6 nM.

On to `CCOc1cc(-n2c(=O)n(C(C)C)c3cc(C(=O)NC4(C)CS(=O)(=O)C4)c(F)cc32)c(F)cn1` [Example 116, 1-(2-ethoxy-5-fluoropyridin-4-yl)-6-fluoro-3-isopropyl-N-(3-methyl-1,1-dioxidothietan-3-yl)-2-oxo-2,3-dihydro-1H-benzo[d]imidazole-5-carboxamide], for which the IC50 was found to be 93 nM.

In the case of `CC(C)n1c(=O)n(-c2cccc(OC(F)(F)C(F)F)c2)c2ncc(C(=O)NC3(C)CS(=O)(=O)C3)cc21` [Example 93, 1-isopropyl-N-(3-methyl-1,1-dioxo-thietan-3-yl)-2-oxo-3-[3-(1,1,2,2-tetrafluoroethoxy)phenyl]imidazo[4,5-b]pyridine-6-carboxamide], the 50% inhibitory concentration (IC50) came out at 24 nM.

In the case of `C[C@@]1(NC(=O)c2ccc3c(c2)n(C2CCC2)c(=O)n3-c2cccc(OC(F)F)c2)CCS(=O)(=O)C1` [Example 37, (R)-3-Cyclobutyl-1-(3-(difluoromethoxy)phenyl)-N-(3-methyl-1,1-dioxidotetrahydrothiophen-3-yl)-2-oxo-2,3-dihydro-1H-benzo[d]imidazole-5-carboxamide], the concentration for half-maximal inhibition (IC50) is 64 nM.

On to `CC(n1c(=O)n(-c2cccc(OC(F)(F)C(F)F)c2)c2ccc(C(=O)NC3(C)CS(=O)(=O)C3)cc21)C(C)(C)O` (single isomer, unassigned) [Example 76b, 3-(3-hydroxy-3-methylbutan-2-yl)-N-(3-methyl-1,1-dioxidothietan-3-yl)-2-oxo-1-(3-(1,1,2,2-tetrafluoroethoxy)phenyl)-2,3-dihydro-1H-benzo[d]imidazole-5-carboxamide], for which the concentration for half-maximal inhibition (IC50) was determined as 7.9 nM.

`CC(C)Oc1cccc(-n2c(=O)n(C(C)C)c3cc(C(=O)NC4(C)CS(=O)(=O)C4)cnc32)c1` [Example 100, 3-(3-isopropoxyphenyl)-1-isopropyl-N-(3-methyl-1,1-dioxo-thietan-3-yl)-2-oxo-imidazo[4,5-b]pyridine-6-carboxamide]: the IC50 was 692 nM.

Turning to `CC1(NC(=O)c2ccc3c(c2)n(Cc2ccc(F)cc2)c(=O)n3-c2cccc(OC(F)F)c2)CCS(=O)(=O)CC1` [Example 59, 1-(3-(difluoromethoxy)phenyl)-3-(4-fluorobenzyl)-N-(4-methyl-1,1-dioxidotetrahydro-2H-thiopyran-4-yl)-2-oxo-2,3-dihydro-1H-benzo[d]imidazole-5-carboxamide], the IC50 came to 38 nM.

Take `Cc1nc2ccc(-n3c(=O)n(C(C)C)c4cc(C(=O)NC5(C)CS(=O)(=O)C5)ccc43)cc2o1` [Example 49, 3-isopropyl-N-(3-methyl-1,1-dioxidothietan-3-yl)-1-(2-methylbenzo[d]oxazol-6-yl)-2-oxo-2,3-dihydro-1H-benzo[d]imidazole-5-carboxamide]: the half-maximal inhibitory concentration (IC50) is over 10000 nM.

Consider `Cc1nc2c(-n3c(=O)n(C(C)C)c4cc(C(=O)NC5(C)CS(=O)(=O)C5)ccc43)cccc2o1` [Example 48, 3-isopropyl-N-(3-methyl-1,1-dioxidothietan-3-yl)-1-(2-methylbenzo[d]oxazol-4-yl)-2-oxo-2,3-dihydro-1H-benzo[d]imidazole-5-carboxamide], for which the half-inhibitory concentration (IC50) was over 10000 nM.

Take `CC(n1c(=O)n(-c2cc(OCC(F)F)ncc2F)c2ccc(C(=O)NC3(C)CCS(=O)(=O)CC3)cc21)C(C)(C)O` (single isomer, unassigned) [Example 72b, 1-(2-(2,2-difluoroethoxy)-5-fluoropyridin-4-yl)-3-(3-hydroxy-3-methylbutan-2-yl)-N-(4-methyl-1,1-dioxidotetrahydro-2H-thiopyran-4-yl)-2-oxo-2,3-dihydro-1H-benzo[a]imidazole-5-carboxamide]: the concentration for half-maximal inhibition (IC50) is 6.6 nM.

Take `CC(C)n1c(=O)n(-c2cccc(OC(F)F)c2)c2cc(F)c(C(=O)N[C@]3(C)CCS(=O)(=O)C3)cc21` [Example 113, (R)-1-(3-(Difluoromethoxy)phenyl)-6-fluoro-3-isopropyl-N-(3-methyl-1,1-dioxidotetrahydrothiophen-3-1)-2-oxo-2,3-dihydro-1H-benzo[d]imidazole-5-carboxamide]: the IC50 worked out at 78 nM.

For the molecule `CC(n1c(=O)n(-c2cccc(OCC(F)F)c2)c2ccc(C(=O)NC3(C)CCS(=O)(=O)CC3)cc21)C(C)(C)O` (single isomer, unassigned) [Example 68b, 1-(3-(2,2-difluoroethoxy)phenyl)-3-(3-hydroxy-3-methylbutan-2-yl)-N-(4-methyl-1,1-dioxidotetrahydro-2H-thiopyran-4-yl)-2-oxo-2,3-dihydro-1H-benzo[d]imidazole-5-carboxamide], the IC50 turned out to be 1.8 nM.

`CC(C)n1c(=O)n(-c2cccc(OC(F)F)c2)c2ccc(C(=O)N[C@@H]3CCCC[C@H]3O)cc21` [Example 31, 1-[3-(difluoromethoxy)phenyl]-N-[(1R,2R)-2-hydroxycyclohexyl]-3-isopropyl-2-oxo-benzimidazole-5-carboxamide]: the IC50 stood at 106 nM.

For the molecule `CC(C)n1c(=O)n(-c2cccc(OC(F)F)c2)c2ccc(C(=O)NC3(C)CCS(=O)(=O)CC3)c(F)c21` [Example 126, 1-(3-(Difluoromethoxy)phenyl)-4-fluoro-3-isopropyl-N-(4-methyl-1,1-dioxidotetrahydro-2H-thiopyran-4-yl)-2-oxo-2,3-dihydro-1H-benzo[d]imidazole-5-carboxamide], the half-maximal inhibitory concentration (IC50) stood at 257 nM.

For the molecule `CC1(NC(=O)c2ccc3c(c2)n(C2CCOCC2)c(=O)n3-c2cccc(OC(F)F)c2)CS(=O)(=O)C1` [Example 36, 1-(3-(difluoromethoxy)phenyl)-N-(3-methyl-1,1-dioxidothietan-3-yl)-2-oxo-3-(tetrahydro-2H-pyran-4-yl)-2,3-dihydro-1H-benzo[d]imidazole-5-carboxamide], the half-maximal inhibitory concentration (IC50) was determined as 19.4 nM.

Staying with this assay, now noted: membrane prep of Sf-9 cells expressing hDGAT2; 25 μM diolein, 5 μM 13C oleoyl-CoA; 13C18-triolein by LC/MS/MS; read-out: Human DGAT2 IC50.
Take `CC(C)n1c(=O)n(-c2cccc(OC(F)F)c2)c2ccc(C(=O)NC3(C)CCS(=O)(=O)CC3)cc21` [Example 25, 1-(3-(difluoromethoxy)phenyl)-3-isopropyl-N-(4-methyl-1,1-dioxidotetrahydro-2H-thiopyran-4-yl)-2-oxo-2,3-dihydro-1H-benzo[d]imidazole-5-carboxamide]: the IC50 stood at 23 nM.

Regarding `CCOc1cccc(-n2c(=O)n(C(C)C)c3cc(C(=O)NC4(C)CS(=O)(=O)C4)ccc32)c1` [Example 9, 1-(3-ethoxyphenyl)-3-isopropyl-N-(3-methyl-1,1-dioxo-thietan-3-yl)-2-oxo-benzimidazole-5-carboxamide], the IC50 was found to be 4.3 nM.

For `CC(C)n1c(=O)n(-c2cccc(C3CC3(F)F)c2)c2ccc(C(=O)NC3(C)CS(=O)(=O)C3)cc21` (centres unmarked) [Example 22, 1-(3-(2,2-Difluorocyclopropyl)phenyl)-3-isopropyl-N-(3-methyl-1,1-dioxidothietan-3-yl)-2-oxo-2,3-dihydro-1H-benzo[d]imidazole-5-carboxamide], the IC50 was 66 nM.

Take `CC(C)n1c(=O)n(-c2cccc(OC(F)F)c2)c2ccc(C(=O)N[C@]3(C)CCS(=O)(=O)C3)cc21` [Example 23, (R)-1-(3-(Difluoromethoxy)phenyl)-3-isopropyl-N-(3-methyl-1,1-dioxidotetrahydrothiophen-3-yl)-2-oxo-2,3-dihydro-1H-benzo[d]imidazole-5-carboxamide]: the half-inhibitory concentration (IC50) was 63 nM.

For `CC(C)n1c(=O)n(-c2cccc(C3CC3)c2)c2ccc(C(=O)NC3(C)CS(=O)(=O)C3)cc21` [Example 13, 1-(3-cyclopropylphenyl)-3-isopropyl-N-(3-methyl-1,1-dioxo-thietan-3-yl)-2-oxo-benzimidazole-5-carboxamide], the IC50 came out at 17 nM.

Consider `CC(C)(O)Cn1c(=O)n(-c2cccc(OC(F)F)c2)c2ccc(C(=O)NC3(C)CS(=O)(=O)C3)cc21` [Example 64, 1-(3-(difluoromethoxy)phenyl)-3-(2-hydroxy-2-methylpropyl)-N-(3-methyl-1,1-dioxidothietan-3-yl)-2-oxo-2,3-dihydro-1H-benzo[d]imidazole-5-carboxamide], for which the 50% inhibitory concentration (IC50) was found to be 35.6 nM.

On to `CC1(NC(=O)c2ccc3c(c2)n(-c2ccc(F)cc2)c(=O)n3-c2cccc(OC(F)F)c2)CS(=O)(=O)C1` [Example 2, 1-(3-(difluoromethoxy)phenyl)-3-(4-fluorophenyl)-N-(3-methyl-1,1-dioxidothietan-3-yl)-2-oxo-2,3-dihydro-1H-benzo[d]imidazole-5-carboxamide], for which the IC50 is 1.8 nM.
